Measured values: PMC3241989, “ADP Regulates SNF1, the Saccharomyces cerevisiae Homolog of AMP-Activated Protein Kinase” (Cell Metabolism, 2011)

What was measured:
[1] = molecular target: T1, SNF1 complex (Snf1(1-633)Gal83(1-417)Snf4(1-322)) (Saccharomyces cerevisiae, UniProt P12904); experiment: fluorescence competition against NADH; format: binding; conditions: phosphorylated SNF1, 20°C, 50 mM Tris pH 8, 100 mM NaCl, 1 mM TCEP
T1 construct: full-length heterotrimer, His-tagged, expressed in E. coli, nickel-Sepharose; phosphorylated on Snf1 Thr210 by CaMKKbeta; with Carbon catabolite-derepressing protein kinase; SNF1 protein kinase subunit beta-3
T1 sequence (P12904 1-322): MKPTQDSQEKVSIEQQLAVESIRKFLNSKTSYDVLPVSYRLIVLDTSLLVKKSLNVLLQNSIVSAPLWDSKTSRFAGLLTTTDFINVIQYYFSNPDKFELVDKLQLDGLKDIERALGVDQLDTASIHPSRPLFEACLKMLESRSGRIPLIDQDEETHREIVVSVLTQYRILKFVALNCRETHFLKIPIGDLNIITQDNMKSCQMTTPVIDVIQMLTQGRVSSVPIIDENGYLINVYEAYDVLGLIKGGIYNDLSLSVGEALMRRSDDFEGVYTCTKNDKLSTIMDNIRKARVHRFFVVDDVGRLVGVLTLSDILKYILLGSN
T1 sequence (P06782 1-633 partner): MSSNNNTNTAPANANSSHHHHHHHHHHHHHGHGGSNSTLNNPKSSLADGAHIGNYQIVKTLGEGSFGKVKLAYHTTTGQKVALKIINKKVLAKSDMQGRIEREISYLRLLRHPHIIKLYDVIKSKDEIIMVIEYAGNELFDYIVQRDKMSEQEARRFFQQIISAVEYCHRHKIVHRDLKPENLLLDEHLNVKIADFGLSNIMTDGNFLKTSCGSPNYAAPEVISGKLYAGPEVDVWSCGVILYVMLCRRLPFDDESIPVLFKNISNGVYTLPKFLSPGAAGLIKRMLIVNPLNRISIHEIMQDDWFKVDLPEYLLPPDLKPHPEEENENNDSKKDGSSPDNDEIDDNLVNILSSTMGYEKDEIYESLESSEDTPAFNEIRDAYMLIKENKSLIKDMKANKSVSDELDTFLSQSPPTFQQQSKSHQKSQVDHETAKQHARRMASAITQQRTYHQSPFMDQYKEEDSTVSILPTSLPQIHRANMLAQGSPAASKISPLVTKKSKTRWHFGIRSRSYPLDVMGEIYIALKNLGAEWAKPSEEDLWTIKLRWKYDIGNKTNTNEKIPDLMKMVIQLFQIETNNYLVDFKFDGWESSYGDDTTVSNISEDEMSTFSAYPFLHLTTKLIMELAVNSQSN
T1 sequence (Q04739 1-417 partner): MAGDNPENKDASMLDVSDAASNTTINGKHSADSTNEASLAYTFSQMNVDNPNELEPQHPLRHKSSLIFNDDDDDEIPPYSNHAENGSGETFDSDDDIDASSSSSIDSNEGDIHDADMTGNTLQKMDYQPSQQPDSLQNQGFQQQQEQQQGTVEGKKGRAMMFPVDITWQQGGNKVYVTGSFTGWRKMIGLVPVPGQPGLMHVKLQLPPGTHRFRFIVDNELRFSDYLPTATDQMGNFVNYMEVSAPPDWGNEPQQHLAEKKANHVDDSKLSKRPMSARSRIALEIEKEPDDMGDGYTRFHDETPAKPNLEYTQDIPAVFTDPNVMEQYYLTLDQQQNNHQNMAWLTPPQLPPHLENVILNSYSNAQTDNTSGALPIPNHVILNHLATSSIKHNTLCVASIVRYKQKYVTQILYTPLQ

[2] = molecular target: T2, regulatory fragment of SNF1 (Snf4(1-322)Sip2(304-415)Snf1(457-633)) (Saccharomyces cerevisiae, UniProt P12904); experiment: X-ray crystallography, crystal soak; format: binding; conditions: site 4 of Snf4
T2 construct: C-terminal domains of Snf1 and Sip2 with full-length Snf4 (1-322; b14 prints 1-332), tricistronic E. coli expression, His-tag removed with PreScission protease; with Carbon catabolite-derepressing protein kinase; SNF1 protein kinase subunit beta-2
T2 sequence (P12904 1-322): T1 sequence (P12904 1-322)
T2 sequence (P34164 304-415 partner): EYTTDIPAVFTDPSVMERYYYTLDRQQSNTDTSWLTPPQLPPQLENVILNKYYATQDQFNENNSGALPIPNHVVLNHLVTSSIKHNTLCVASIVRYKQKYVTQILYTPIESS
T2 sequence (P06782 457-633 partner): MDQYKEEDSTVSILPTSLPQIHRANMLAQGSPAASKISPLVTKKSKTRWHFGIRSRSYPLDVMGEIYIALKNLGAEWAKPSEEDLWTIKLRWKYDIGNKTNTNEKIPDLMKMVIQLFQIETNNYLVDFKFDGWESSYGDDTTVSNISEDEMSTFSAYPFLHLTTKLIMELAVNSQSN

[3] = molecular target: T1, SNF1 complex (Snf1(1-633)Gal83(1-417)Snf4(1-322)); experiment: protection of Snf1 phospho-Thr210 against dephosphorylation by PP2C (western blot); format: biochemical; conditions: read-out: half-maximal effect
[4] = molecular target: T1, SNF1 complex (Snf1(1-633)Gal83(1-417)Snf4(1-322)); experiment: fluorescence titration of coumarin nucleotide with SNF1; format: binding; conditions: read-out: Kd,I
[5] = no Mg, tight site, competitive with NADH, error is SD, read-out: Kd (μM) / Versus C-AXPs

Row | Kd [1, 5] | Compound | X-ray crystallography, crystal soak [2] | further results
1 | 72 µM | Nc1ncnc2c1ncn2[C@@H]1O[C@H](COP(=O)(O)OP(=O)(O)O)[C@@H](O)[C@H]1O [ADP] | strong, well-resolved electron density for AMP, ADP, and NADH | EC50 [3]: ~500 µM
2 | – | Nc1ncnc2c1ncn2[C@@H]1O[C@H](COP(=O)(O)O)[C@@H](O)[C@H]1O [AMP] | strong, well-resolved electron density for AMP, ADP, and NADH | –
3 | 120 µM | Nc1ncnc2c1ncn2[C@@H]1O[C@H](COP(=O)(O)OP(=O)(O)OP(=O)(O)O)[C@@H](O)[C@H]1O [ATP] | – | –
4 | – | CCN(CC)c1ccc2cc(C(=O)N[C@H]3[C@@H](O)[C@H](n4cnc5c(N)ncnc54)O[C@@H]3COP(=O)(O)OP(=O)(O)O)c(=O)oc2c1 [C-ADP, 3′-(7-diethylaminocoumarin-3-carbonylamino)-3′-deoxyadenosine 5′ diphosphate] | – | Kd [4]: 9 µM
5 | – | NC(=O)C1=CN([C@@H]2O[C@H](COP(=O)(O)OP(=O)(O)OC[C@H]3O[C@@H](n4cnc5c(N)ncnc54)[C@H](O)[C@@H]3O)[C@@H](O)[C@H]2O)C=CC1 [NADH] | strong, well-resolved electron density for AMP, ADP, and NADH | –
6 | – | NC(=O)c1ccc[n+]([C@@H]2O[C@H](COP(=O)(O)OP(=O)(O)OC[C@H]3O[C@@H](n4cnc5c(N)ncnc54)[C@H](O)[C@@H]3O)[C@@H](O)[C@H]2O)c1 [NAD^+] | – | Kd ([1]; read-out: Kd): > 250 µM
